According to PubChem BioAssay (NCI):
Values joined by “and” are separate entries in the source; they are usually repeats but may differ in a detail not shown here. Identical values can stand only once.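 In this assay, cells in 96-well plates receive the compound at five concentrations for 48 hours. Endpoints are linearly interpolated between the surrounding concentrations. GI50: concentration for 50% inhibition of growth. The concentration for full growth arrest is given as TGI.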

Key:
Experiment in all cases: NCI anticancer screen, dose series, 48 h
KM12 colon = system: KM12 colon
LOX IMVI melanoma = system: LOX IMVI melanoma
EKVX NSCLC = system: EKVX NSCLC
UACC-257 melanoma = system: UACC-257 melanoma
SK-OV-3 ovarian = system: SK-OV-3 ovarian
RXF 393 renal = system: RXF 393 renal
OVCAR-8 ovarian = system: OVCAR-8 ovarian
SF-295 CNS = system: SF-295 CNS
MOLT-4 leukemia = system: MOLT-4 leukemia
HOP-92 NSCLC = system: HOP-92 NSCLC

SMILES | GI50 (KM12 colon) | TGI (KM12 colon) [µM] | GI50 (LOX IMVI melanoma) | TGI (LOX IMVI melanoma) [µM] | GI50 (EKVX NSCLC) [µM] | TGI (EKVX NSCLC) [µM] | GI50 (UACC-257 melanoma) [µM] | TGI (UACC-257 melanoma) [µM] | GI50 (SK-OV-3 ovarian) [µM] | TGI (SK-OV-3 ovarian) | GI50 (RXF 393 renal) | TGI (RXF 393 renal) | GI50 (OVCAR-8 ovarian) [µM] | TGI (OVCAR-8 ovarian) | GI50 (SF-295 CNS) | TGI (SF-295 CNS) [µM] | GI50 (MOLT-4 leukemia) [µM] | TGI (MOLT-4 leukemia) [µM] | GI50 (HOP-92 NSCLC) [µM] | TGI (HOP-92 NSCLC)
CC1(C)N=C(N)N=C(N)N1c1ccc(CCC(=O)Nc2ccc(S(=O)(=O)F)cc2)c(Cl)c1 | 0.243 µM | 28.3 | 0.402 µM | > 100 | 2.78 | > 100 | > 42.5 | > 100 | 8.56 | > 100 µM | > 45.4 µM | > 100 µM | 4.66 | > 100 µM | 1.09 µM | > 100 | 1.2 | > 100 | 6.54 | > 100 µM
CN(C)C/C=C/C(=O)Nc1ccc(C(=O)N[C@@]2(C)CCC[C@@H](Nc3ncc(Cl)c(-c4c[nH]c5ccccc45)n3)C2)nc1 | 0.013 µM | 0.194 |  |  | < 0.01 | 0.564 | < 0.01 | 0.121 | 0.101 | 1.23 µM | 0.0144 µM | 0.0344 µM | 0.0154 | 1.19 µM | 0.0126 µM | 1.1 | 0.0178 | 1.12 | < 0.0109 | 0.041 µM
COc1cc(C2c3cc4c(cc3OC(C)(N3CCCC3)C2C)OCO4)cc(OC)c1OC (stereo unspecified) |  | 9.45 |  | > 31.4 |  | > 50.8 |  | > 100 |  | > 62.6 µM |  | 2.93 µM |  |  |  | 0.661 |  | 10.6 |  | 33.6 µM
O=S(=O)(C1=CC(S(=O)(=O)c2ccccc2)CN(Cc2ccccc2)C1c1cccc2ccccc12)c1ccccc1 (stereo unspecified) |  | > 69 |  | > 69 |  | > 69 |  | > 69 |  | > 69 µM |  | > 69 µM |  | > 69 µM |  | > 69 |  | > 69 |  | > 69 µM
Cc1cn(-c2cc(NC(=O)c3cccc(C#Cc4cccc5[nH]nc(N)c45)c3)cc(C(F)(F)F)c2)cn1 | 1.29 µM | > 100 | 2.87 µM | > 100 | 7.38 | > 100 | 6.59 | 78.3 | 22.2 | > 100 µM | 5.1 µM | 21.6 µM | 4.99 | 36.3 µM | 4.26 µM | 28.4 | 3.84 | > 100 | 2.67 | 9.75 µM
Cc1ccc(C)c(NC(=O)CC2Sc3ccccc3NC2=O)c1 (stereo unspecified) | 22.7 µM and > 100 µM | > 100 | 34.5 µM and > 81.5 µM | > 100 |  | > 100 |  | > 97.1 |  | 38.3 µM and 48.3 µM | 6.39 µM and 14 µM | 12.8 µM and 28.4 µM |  | 27 µM and 45.3 µM |  | > 100 |  | > 100 |  | 16.9 µM and 42.5 µM
O=C(NC(=O)c1c(F)cccc1F)Nc1cccc(Oc2ncc(Cl)cn2)c1 |  | > 100 |  | > 100 |  | > 100 |  | > 100 |  | > 93.3 µM |  | 79.5 µM |  | > 100 µM |  | > 85 |  | > 100 |  | 70.9 µM
COCCOC(=O)C1=C(O)c2ccccc2S(=O)(=O)N1C |  | > 100 |  | > 100 |  | > 100 |  | > 100 |  | > 100 µM |  | > 100 µM |  | > 100 µM |  | > 100 |  | > 100 |  | > 100 µM
N[C@H](C(=O)O)[C@@H]1CC(Cl)=NO1 |  | > 741 | 3.28 µM | > 1000 | 11.5 | 303 | 84.8 | > 1000 | 34.5 | > 584 µM |  | 718 µM | 22.2 | 502 µM | 7.59 µM and 2.63 µM | > 908 | 5.21 | > 806 |  | 541 µM
C=C(C)[C@@H]1CC[C@]2(COCCCN)CC[C@]3(C)[C@H](CC[C@@H]4[C@@](C)(CCCNCCCN)[C@H](C(=C)C)CC[C@]43C)[C@@H]12 | 1.74 µM | 3.14 |  |  | 1.71 | 3.21 | 1.88 | 3.67 | 2.23 | 4.9 µM | 1.59 µM | 2.98 µM | 1.91 | 3.61 µM | 1.94 µM | 3.83 | 1.96 | 4.47 | 1.36 | 2.84 µM
CCCOC(=O)N[C@H]1CCc2c(Cl)c(OC)c(OC)c(OC)c2-c2ccc(SC)c(=O)cc21 | < 0.01 µM | 1.63 | < 0.01 µM | 13 | < 0.01 | > 100 | 7.46 | 37.5 |  |  | < 0.01 µM | 8.41 µM | < 0.0122 | > 100 µM | < 0.01 µM |  | < 0.01 | 23.6 | < 0.0119 | 4.65 µM
CCN1C(=O)/C(=C/c2c(Cl)[nH]c3cc(C)c(OC)cc23)c2ccccc21 | 0.483 µM | 12.2 | 9.72 µM | > 100 | 7.58 | 80.4 | 6.47 | > 100 |  |  | 1.11 µM | 34 µM | 4.29 | > 100 µM | 1.49 µM | 40.6 | 4.36 | 35.2 | 12.8 | 63.4 µM
O=C1C=C(Nc2ccccc2C(=O)CC(=O)C(=O)Nc2cccc([N+](=O)[O-])c2)c2ccccc2C1=O |  | > 100 |  | 23.1 |  | > 100 |  | 78.5 |  | > 100 µM |  | > 100 µM |  | > 100 µM |  |  |  | > 100 |  | > 100 µM
COC(=O)C(=O)CC(=O)CCn1[nH]c(=O)c(Cl)c(Cl)c1=O |  | > 100 |  | > 100 |  | > 100 |  | > 100 |  |  |  | > 100 µM |  | > 100 µM |  | > 100 |  |  |  | > 100 µM
Cc1ccc(C2=C(c3ccc(C)cc3)C3(c4ccc(C)cc4)C4C(=O)OC(=O)C4C2(c2ccc(C)cc2)S3=O)cc1 (stereo unspecified) | 22.9 µM | 76.1 | 18.5 µM | 73.7 | 42 | > 100 | > 100 | > 100 | 26.8 | 98.7 µM | 13.9 µM | 30.4 µM | 25.7 | > 100 µM | 13.1 µM | 37.7 |  |  | 25.3 | 89.8 µM
NC(CSC(c1ccccc1)(c1ccccc1)c1ccccc1)C(=O)NCC(=O)O (stereo unspecified) | 3.96 µM | 38.4 | 7.66 µM | > 100 |  |  | 5.19 | > 100 | 4.33 | 43.7 µM | 2.84 µM | 19.5 µM | 5.35 | > 100 µM | 6.1 µM | > 100 | 16 | 86.3 | 5.01 | > 100 µM
CC1(O)C(C)(O)C2(C)O[Te]3(OC12C)OC1(C)C(C)(O)C(C)(O)C1(C)O3 (stereo unspecified) |  | > 100 |  | 18.9 |  | > 100 |  | > 100 |  |  |  | 37.6 µM |  | 32 µM |  | > 100 |  | 34.5 |  | 49.2 µM
O=C(Nc1ccc(Cl)cc1)C1C(=O)C(=O)N(c2ccc(Cl)cc2)C1=O (stereo unspecified) |  | > 100 |  | > 100 |  | > 100 |  |  |  | > 100 µM |  | > 100 µM |  | > 100 µM |  | > 100 |  | > 100 |  | 69.3 µM
C=C1c2c(C)nn(-c3ccc(C#CCOC4OC(CO)C(O)C(O)C4O)cc3)c2N(C)C23C[C@H]1C1(C)c4c(C)nn(-c5ccc(C#CCOC6OC(CO)C(O)C(O)C6O)cc5)c4N(C)C(C)(C[C@H]12)C3 (stereo partly specified) | 1.44 µM | 2.9 | 1.37 µM | 2.79 |  |  | 1.82 | 4.56 | 1.72 | 3.11 µM | 1.62 µM | 3.52 µM | 1 | 3.84 µM |  |  | 1.28 | 3.88 | 0.437 | 2.52 µM
CCN1C(=O)c2ccc3c4c(ccc(c24)C1=O)C(=O)N(CCCNCc1ccccc1OC)C3=O | 0.63 µM | 3.75 | 0.314 µM | 1.31 |  |  | 0.264 | 0.88 | 2.28 | 7.04 µM | 0.671 µM | 2.04 µM | 0.438 | 2.87 µM | 0.377 µM | 1.37 | 0.891 | 4.37 | 2.6 | 5.5 µM
CCCCCCCCCCCCCP(=O)(O)O |  | > 100 |  | > 100 |  | > 100 |  | > 100 |  | > 100 µM |  | > 100 µM |  | > 100 µM |  | > 100 |  |  |  | > 100 µM
O=C(O)CCCc1ccc2ccc3ccccc3c2c1 |  | > 100 |  | > 100 |  | > 100 |  | > 100 |  |  |  | > 100 µM |  | > 100 µM |  | > 100 |  | > 100 |  | > 100 µM
N#CCC(=O)N/N=C1/C(=O)N(c2ccc(Cl)cc2)C(=O)C(=O)C1c1nc2ccccc2s1 (stereo unspecified) |  | > 100 |  | > 100 |  | > 100 |  | > 100 |  | > 100 µM |  | > 100 µM |  | > 100 µM |  | > 100 |  |  |  | > 100 µM
NC1=NN(c2ccccc2)C(=O)C1C(=O)CCC(=O)Nc1cccc(Cl)c1 (stereo unspecified) |  | > 100 |  | > 100 |  | > 100 |  | > 100 |  | > 100 µM |  | > 100 µM |  | > 100 µM |  | > 100 |  |  |  | > 100 µM
